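Assay format: 96-well plates, 48-hour exposure. At the GI50, growth is halved.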 The source made the active and inactive calls. Rule as the data show it: active = GI50 up to about 1.1 µM and inactive = higher.
Columns and labels:
Assay in all cases: growth of human tumour cells (NCI), 48 h
A498 = test system: A498
COLO 205 = test system: COLO 205
EKVX = test system: EKVX
HOP-92 = test system: HOP-92
IGROV-1 = test system: IGROV-1
KM12 = test system: KM12
M14 = test system: M14
MOLT-4 = test system: MOLT-4
Malme-3M = test system: Malme-3M
NCI-H226 = test system: NCI-H226
OVCAR-8 = test system: OVCAR-8
PC-3 = test system: PC-3
SF-268 = test system: SF-268
SF-295 = test system: SF-295
SF-539 = test system: SF-539
SK-MEL-28 = test system: SK-MEL-28
SK-MEL-5 = test system: SK-MEL-5
SK-OV-3 = test system: SK-OV-3
HL-60 = test system: HL-60
BT-549 = test system: BT-549

Structure (SMILES) | GI50 (A498) | GI50 (COLO 205) | GI50 (EKVX) | GI50 (HOP-92) | GI50 (IGROV-1) | GI50 (KM12) | GI50 (M14) | GI50 (MOLT-4) | GI50 (Malme-3M) | GI50 (NCI-H226) | GI50 (OVCAR-8) | GI50 (PC-3) | GI50 (SF-268) | GI50 (SF-295) | GI50 (SF-539) | GI50 (SK-MEL-28) | GI50 (SK-MEL-5) | GI50 (SK-OV-3) | GI50 (HL-60) | GI50 (BT-549)
COC1(OC)C=CC2C1C1C=CC2C1(OC)OC (centres undefined) | > 100 µM (inactive) | > 100 µM (inactive) | > 100 µM (inactive) | > 100 µM (inactive) | > 100 µM (inactive) | > 100 µM (inactive) | > 100 µM (inactive) | > 100 µM (inactive) | > 100 µM (inactive) | > 100 µM (inactive) | > 100 µM (inactive) | > 100 µM (inactive) | > 100 µM (inactive) | > 100 µM (inactive) | > 100 µM (inactive) | > 100 µM (inactive) | > 100 µM (inactive) | > 100 µM (inactive) | – | –
O=C(O)CCC(NC(=O)c1ccc(Oc2nc3ccccc3nc2-c2ccccc2)cc1)C(=O)O (centres undefined) | > 100 µM (inactive) | > 100 µM (inactive) | > 100 µM (inactive) | > 100 µM (inactive) | > 100 µM (inactive) | > 100 µM (inactive) | > 100 µM (inactive) | > 100 µM (inactive) | > 100 µM (inactive) | > 100 µM (inactive) | > 100 µM (inactive) | > 100 µM (inactive) | > 100 µM (inactive) | > 100 µM (inactive) | > 100 µM (inactive) | > 100 µM (inactive) | – | > 100 µM (inactive) | > 100 µM (inactive) | –
O=C(CNc1c(Cl)cccc1Cl)NC1C=Cc2ccc(S(=O)(=O)Nc3c(Cl)cccc3Cl)cc2C1=O (centres undefined) | – | > 100 µM (inactive) | 17.7 µM (inactive) | 18.5 µM (inactive) | 2.4 µM (inactive) | 35.9 µM (inactive) | > 100 µM (inactive) | > 100 µM (inactive) | > 100 µM (inactive) | 17.5 µM (inactive) | > 100 µM (inactive) | 23.7 µM (inactive) | 48.3 µM (inactive) | 70.8 µM (inactive) | > 100 µM (inactive) | > 100 µM (inactive) | – | > 100 µM (inactive) | 75.2 µM (inactive) | 60.7 µM (inactive)
N=c1oc2ccccc2cc1C(=O)Nc1ccccn1 | > 100 µM (inactive) | > 100 µM (inactive) | 33.2 µM (inactive) | > 100 µM (inactive) | 51.9 µM (inactive) | 56.5 µM (inactive) | > 100 µM (inactive) | 66.4 µM (inactive) | 14 µM (inactive) | > 100 µM (inactive) | > 100 µM (inactive) | – | > 100 µM (inactive) | – | 65.6 µM (inactive) | > 100 µM (inactive) | > 100 µM (inactive) | > 100 µM (inactive) | > 100 µM (inactive) | > 100 µM (inactive)
Clc1sc(Cl)c2c1[C@H](Br)C[C@@H]2Cl | – | 20.1 µM (inactive) | 35.9 µM (inactive) | – | 13.2 µM (inactive) | 39.8 µM (inactive) | 20.3 µM (inactive) | 19.1 µM (inactive) | 21.9 µM (inactive) | – | 27.6 µM (inactive) | 40.3 µM (inactive) | 23 µM (inactive) | 99.5 µM (inactive) | 15.8 µM (inactive) | 29 µM (inactive) | 46.9 µM (inactive) | > 100 µM (inactive) | – | 18.2 µM (inactive)
C=CCNC1=C2C[C@@H](C)C[C@@H](OC)[C@H](OC(=O)CCN)[C@H](C)/C=C(\C)[C@@H](OC(N)=O)[C@H](OC)/C=C\C=C(/C)C(=O)NC(=CC1=O)C2=O | 3.61 µM (inactive) | 0.718 µM (active) | 8.75 µM (inactive) | 4.49 µM (inactive) | 4.74 µM (inactive) | 1.79 µM (inactive) | 3.71 µM (inactive) | 3.86 µM (inactive) | 2.67 µM (inactive) | – | 4.18 µM (inactive) | – | 9.57 µM (inactive) | 3.75 µM (inactive) | – | 14.5 µM (inactive) | 4.12 µM (inactive) | 1.35 µM (inactive) | 3.83 µM (inactive) | 7.45 µM (inactive)
CCOC(=O)C1OC(=O)CC1C1(C(=O)OCC)C=CC(=O)O1 (centres undefined) | – | > 100 µM (inactive) | > 100 µM (inactive) | > 100 µM (inactive) | > 100 µM (inactive) | > 100 µM (inactive) | > 100 µM (inactive) | > 100 µM (inactive) | > 100 µM (inactive) | > 100 µM (inactive) | > 100 µM (inactive) | > 100 µM (inactive) | > 100 µM (inactive) | > 100 µM (inactive) | > 100 µM (inactive) | > 100 µM (inactive) | > 100 µM (inactive) | > 100 µM (inactive) | 42 µM (inactive) | > 100 µM (inactive)
